Source: patent EP2565188A1, “Novel photoactivatable paclitaxel derivatives and uses thereof, in particular in cellbiology and cancer treatment” (Max-Planck-Gesellschaft zur Förderung der Wissenschaften …, priority 2011, dated 2013)

Tests used:
[1] = Solubility test of 10 µM solutions in 1:1000 DMSO:PIPES buffer; type: physicochemical
Protocol: 10 mM solutions of PTX derivatives in DMSO were prepared. All substances were soluble in DMSO at this concentration. 10 µM solutions of were obtained by 1:1000 dilution of the stock solution into 80 mM PIPES buffer pH 6.8, containing 2 mM MgCl2 and 1 mM EGTA. Table A: solubility test of 10 µM solutions of PTX derivatives in 1:1000 DMSO:PIPES buffer

HeLa cells [2] = type: cell-based, Human
Protocol: (§1) Human cervix carcinoma cells, HeLa cells (#ACC57, DMSZ, Germany), were cultured in DMEM medium (Invitrogen) supplemented with 10% fetal calf serum (FCS, Gibco) in a humidified incubator at 37°C/5%CO2.
In order to evaluate the bioactivity of the caged PCT derivatives, their cytotoxicity was tested in vitro using HeLa cells. Cells were incubated with PTX and caged PTX derivatives at concentrations between 0.01 and 10 µM.
The effect of PTX and derivatives on cell vitality was measured in a combined assay determining cytotoxicity and cell number by propidium iodide (PI) staining. HeLa cells (2x10^4 cells/well) were diluted in cell culture medium (DMEM, 10 % FCS) and seeded in 96 well-plates (black plate, clear bottom, corning, Amsterdam, Netherlands). The culture medium was replaced after ~16h by compound supplemented medium (200 µL, DMEM, 10 % FCS, 1 % DMSO) or medium without compound (DMEM, 10 % FCS, 1 % DMSO) as a specific control. After 48 h, dead cells with permeable cell membranes were stained with PI ([…], 15 min at 37°C, 5% CO2) and the PI fluorescence intensity was measured with a fluorescence plate reader (excitation wavelength 530 nm, emission wavelength 620 nm, Tecan Infinite M1000, Austria). Subsequently, the cells were lysed with 2% Triton X-100 diluted in DMEM (0.3% Triton X-100 per well, 15 min at 37°C, 5% CO2 and the PI fluorescence was measured again. The vitality of the cells was calculated by the ratio of dead cells (DC) before lyses and the total cell number (TCN) after lyses (1-DC/TCN).

HeLa cells [3] = test: Live cell imaging of the microtubule network (Tubulin Tracker / DRAQ5, CLSM); type: cell-based, Human; settings: 24 h
Protocol: as §1
In order to visualize the influence of the PTX derivatives in the microtubule network of the cell, a live cell microscopy analysis of HeLa cells after incubation with 10 µM PTX derivatives for 24 hours was performed.
Specifically, microtubules and nuclei of HeLa cells were fluorescently stained with Tubulin Tracker (Invitrogen) and DRAQ5 (biostatus, United Kingdom) respectively, and imaged by a Leica TCS SP5 confocal laser scanning microscopy (CLSM). 30x10^4 HeLa cells were seeded in 8-well chamber slides (Lab-Tek, nunc, Germany) and the culture medium was replaced after ~16 h by compound supplemented medium (250 µL, DMEM, 10% FCS, 1% DMSO) or medium without compound (DMEM, 10% FCS, 1% DMSO) as a specific control. After 24h, cells were carefully washed with Hank's Buffered Saline Solution (HBSS, with Ca^2+ and Mg^2+, Invitrogen) and the buffer was replaced by a staining solution containing 250 nM Tubulin Tracker (Invitrogen) and 5 µM DRAQ5. The cells were stained for 30 min at 37°C/5% CO2 in a humidified incubator. The staining solution was replaced by HBSS and the cells were directly imaged with a 100x plan apochromat (1.4 NA) oil immersion objective on the CLSM system equipped with a CO2 incubator and a temperature control. Tubulin Tracker was excited with an argon laser (488 nm) and the emission was detected by 500-580 nm. DRAQ5 was excited with a HeNe laser (633 nm) and the emission was detected by 650-730 nm. The images have a voxel height and width of 90 nm. Bright field images grabbed with an Olympus IX-70 inverted microscope with a 20x phase contrast objective. Image processing performed with Leica LAS AF lite and ImageJ (Fiji).

[4] = Photocleavage study: irradiation at 360 nm, composition by HPLC; type: physicochemical; settings: 1 mM, 5% water in acetonitril, share of the labelled species
Protocol: The photolysis of the compounds 2'-Nvoc-PTX and 2',7-bisNvoc-PTX was followed by UV and HPLC analysis of the correspondent solutions after exposure to light at λmax = 360 nm (2.7 mW/cm^2).
3 ml of a 1 mM solution of caged PTX in acetonitrile containing 5% water was placed into a quartz cuvette and was exposed at 360 nm for different irradiation times. Aliquots of 50 µl were taken after various irradiation times, and each aliquot was splitted in two parts. 20 µl were diluted to 400 µl to obtain 50 µM solution for UV-Vis characterisation. The 30 µl left from each aliquot were injected into the HPLC (20 µl loop, analytical column) in order to estimate the composition of the irradiated mixture.
Photocleavage of compound 2',7-bisNvoc-PTX was expected to yield the mono-substituted species 2'-Nvoc-PTX and 7-Nvoc-PTX as intermediates that can be further photolyzed to afford free PTX. In fact, HPLC analysis (Fig. 1) confirmed the presence of 2'-Nvoc-PTX (retention time, r.t.= 16.7 min) and 7-Nvoc-PTX (r.t. = 18.2 min) together with the starting compound 2',7-bisNvoc-PTX (r.t. = 21.3 min) and the fully deprotected PTX (r.t. = 11.1 min). The ratio of these compounds within the composition of the irradiated mixture changes with the exposure dose. Fig. 2 and Table B below show the compositional evolution of the mixture with increasing irradiation time as obtained by HPLC analysis. […] However, the influence of other structural factors in the photolytic mechanism cannot be ruled out. Compound 7-Nvoc-PTX could also be isolated from the irradiated mixture in milligram scale. Table B. Molar composition of a solution of 2',7-bisNvoc-PTX (1 mM, 5% water in acetonitril) after different irradiation times, as determined by analysis of HPLC graphs (Fig. 2)

## COc1cc(COC(=O)O[C@@H](C(=O)O[C@H]2C[C@@]3(O)[C@@H](OC(=O)c4ccccc4)[C@@H]4[C@]5(OC(C)=O)CO[C@@H]5C[C@H](O)[C@@]4(C)C(=O)[C@H](OC(C)=O)C(=C2C)C3(C)C)[C@@H](NC(=O)c2ccccc2)c2ccccc2)c([N+](=O)[O-])cc1OC [2'-Nvoc-PTX]
[1]; 10 µM in 1:1000 DMSO:PIPES buffer (80 mM, pH 6.8), time 1 hr
  solubility test (appearance of solution): clear solution
[1]; 10 µM in 1:1000 DMSO:PIPES buffer (80 mM, pH 6.8), time 8 hrs
  solubility test (appearance of solution): clear solution
[1]; 10 µM in 1:1000 DMSO:PIPES buffer (80 mM, pH 6.8), time 24 hrs
  solubility test (appearance of solution): turbid solution
[1]; 10 µM in 1:1000 DMSO:PIPES buffer (80 mM, pH 6.8), time 30 hrs
  solubility test (appearance of solution): Suspension
[1]; 10 µM in 1:1000 DMSO:PIPES buffer (80 mM, pH 6.8, 2 mM MgCl2, 1 mM EGTA), time 5 min
  solubility test (appearance of solution): clear solution
HeLa cells [2]; 48 h, at 0.5 µM
  reduction in vitality: ~ 25%
HeLa cells [2]; vitality results
  concentration range over which the derivative can be regarded as caged PTX: < 0.1 µM
HeLa cells [3]; 10 µM
  cell morphology / mitosis in microscopy images: showed similar results to free PTX
HeLa cells [3]
  concentrations at which the derivative bound to tubulin: > 10 nM
HeLa cells [3]; concentrations up to 10 µM
  inhibition of PTX bioactivity / binding of PTX to β-tubulin by the cage: not able to completely inhibit PTX bioactivity
HeLa cells [3]; patterns similar between the compounds (Fig. 6)
  concentration triggering the multiple nuclei pattern: 50 nM
[4]; 360 nm (2.7 mW/cm^2), irradiation time 0 min
  Molar composition of a solution of 2',7-bisNvoc-PTX after irradiation: 0%
[4]; 360 nm, irradiation time 60 min
  Molar composition of a solution of 2',7-bisNvoc-PTX after irradiation: 6.3%
[4]; 360 nm, irradiation time 270 min
  Molar composition of a solution of 2',7-bisNvoc-PTX after irradiation: 17.4%
[4]; 360 nm, irradiation time 450 min
  Molar composition of a solution of 2',7-bisNvoc-PTX after irradiation: 27.6%
[4]; 360 nm, irradiation time 570 min
  Molar composition of a solution of 2',7-bisNvoc-PTX after irradiation: 32.3%
[4]; 360 nm, irradiation time 735 min
  Molar composition of a solution of 2',7-bisNvoc-PTX after irradiation: 35.6%
[4]; 360 nm, irradiation time 820 min
  Molar composition of a solution of 2',7-bisNvoc-PTX after irradiation: 38.1%
[4]; 360 nm, irradiation time 1585 min
  Molar composition of a solution of 2',7-bisNvoc-PTX after irradiation: 25.6%
